Experimental findings from ChEMBL document CHEMBL1201862, “PubChem BioAssay data set” (2004) are described below.

Some test systems named below: 786-0; ACHN; CCRF-CEM; COLO 205; HCT-15; HL-60; HT-29; KM12; NCI-H522; OVCAR-4; OVCAR-5; SF-539; SNB-19; T47D; TK-10; U-251; UACC-257; UO-31; OVCAR-8; SK-MEL-28.
What all share (assay): growth of human tumour cells (NCI), 48 h

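48-hour exposure; five concentrations; linearly interpolated endpoints. Here, GI50 denotes the concentration required for 50% inhibition of growth.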 Calls of active or inactive are those of the source. No stated cut-off is given here; in the data, active = GI50 up to about 1.1 µM and inactive = higher.

Consider `CCOC(=O)C(C(=O)OCC)C(=O)c1ccccc1C(=O)c1ccccc1`, for which the GI50 was > 100 µM (inactive) with 786-0; > 100 µM (inactive) with ACHN; 96.2 µM (inactive) with CCRF-CEM; > 100 µM (inactive) in the assay with COLO 205; above 100 µM in the assay on HCT-15; > 100 µM (inactive) with HL-60. Besides, the GI50 in the assay with HT-29 was 28.4 µM (inactive); in the assay with KM12, > 100 µM (inactive); in the assay on NCI-H522 it was > 100 µM (inactive); in the assay on OVCAR-4, > 100 µM (inactive); with OVCAR-5, > 100 µM (inactive); with SF-539 it was > 100 µM (inactive). For the same compound, the GI50 with SNB-19, with T47D, in the assay on TK-10, with U-251, in the assay on UACC-257 and in the assay with UO-31 was > 100 µM (inactive) each time.

Take `COc1cc(/C=N/c2ccccn2)cc(OC)c1OC`: the GI50 with 786-0 was > 100 µM (inactive); in the assay with ACHN, > 100 µM (inactive); in the assay on CCRF-CEM, > 100 µM (inactive); in the assay with COLO 205, > 100 µM (inactive); in the assay with HCT-15, above 82.6 µM; in the assay with HL-60 it was 1.87 µM (inactive). Also, the GI50 in the assay on HT-29, in the assay on KM12, in the assay with NCI-H522, with OVCAR-4, in the assay on OVCAR-5 and in the assay on OVCAR-8 was > 100 µM (inactive) each time. Further, the GI50 in the assay on SF-539 was > 100 µM (inactive); with SK-MEL-28, > 86.9 µM (inactive); in the assay with SNB-19, 80.5 µM (inactive); in the assay with T47D it was > 100 µM (inactive); with U-251 it was > 100 µM (inactive); in the assay with UACC-257, > 100 µM (inactive). In addition, the GI50 in the assay on UO-31 is > 100 µM (inactive).

For `COc1cc2c(c3c1c(=O)c1ccccc1n3C)C=C([N+](=O)[O-])C(C)(C)O2`, the GI50 in the assay with 786-0 is 0.328 µM (active); with ACHN it was 0.0506 µM (active); in the assay on CCRF-CEM it was 0.468 µM (active); in the assay with COLO 205 it was 0.0253 µM (active); in the assay with HCT-15, 0.355 µM; in the assay on HL-60, 0.167 µM (active). Moreover, the GI50 in the assay with HT-29 was 0.522 µM (active); in the assay on KM12 it was > 100 µM (inactive); with NCI-H522, 0.365 µM (active); in the assay with OVCAR-4 it was > 100 µM (inactive); in the assay with OVCAR-8 it was 0.532 µM (active); in the assay with SF-539, 1.36 µM (inactive). Also, the GI50 with SNB-19 is 1.69 µM (inactive); in the assay on T47D, > 100 µM (inactive); in the assay on TK-10, > 65.2 µM (inactive); in the assay with U-251 it was 26.8 µM (inactive); in the assay on UACC-257 it was < 0.0454 µM (active); with UO-31, 0.421 µM (active).

For `COc1c(OC)c(OC)c(-c2cc(=O)c3c(OC)c(OC)c(OC)c(OC)c3o2)c(OC)c1OC`, the GI50 is 21.5 µM (inactive) in the assay with 786-0; 32.7 µM (inactive) with ACHN; 34 µM (inactive) in the assay on CCRF-CEM; 37.4 µM (inactive) in the assay with COLO 205; 26.7 µM in the assay on HCT-15; 37.2 µM (inactive) in the assay on HL-60. Moreover, the GI50 was 28.8 µM (inactive) in the assay on HT-29; 16.2 µM (inactive) in the assay on NCI-H522; 18.1 µM (inactive) in the assay on OVCAR-4; > 100 µM (inactive) in the assay on OVCAR-5; 31.1 µM (inactive) in the assay with OVCAR-8; 48.9 µM (inactive) in the assay on SF-539. For the same compound, the GI50 in the assay with SK-MEL-28 is 90.2 µM (inactive); with SNB-19, 51.9 µM (inactive); in the assay with T47D, 9.14 µM (inactive); in the assay on TK-10, 29.3 µM (inactive); with U-251, 30.1 µM (inactive); in the assay with UACC-257 it was 34.5 µM (inactive). The GI50 in the assay on UO-31 is 29.2 µM (inactive).

Consider `N/C(CCSCCSCC/C(N)=N\O)=N\O`, for which the GI50 is > 100 µM (inactive) in the assay with 786-0; > 100 µM (inactive) in the assay with ACHN; > 100 µM (inactive) in the assay on CCRF-CEM; > 100 µM (inactive) with COLO 205; above 100 µM in the assay with HCT-15; > 100 µM (inactive) in the assay on HL-60. Moreover, the GI50 in the assay with HT-29, with KM12, in the assay with NCI-H522, in the assay on OVCAR-4, in the assay on OVCAR-5 and with SF-539 was > 100 µM (inactive) throughout. Also, the GI50 in the assay on SK-MEL-28, with SNB-19, in the assay with T47D, with TK-10, with U-251 and with UO-31 was > 100 µM (inactive) each time.

As for `COc1ccc(-c2oc3c(CC(=O)O)cccc3c(=O)c2OC)cc1`, the GI50 in the assay with 786-0, with ACHN, in the assay on CCRF-CEM, in the assay on COLO 205, in the assay with HL-60 and with HT-29 was > 100 µM (inactive) each time. For the same compound, the GI50 in the assay with NCI-H522, with OVCAR-5, with OVCAR-8, with SF-539, with T47D and in the assay with TK-10 was > 100 µM (inactive) each time. Besides, the GI50 with U-251 was > 100 µM (inactive); with UACC-257, > 100 µM (inactive); with UO-31, 0.0809 µM (active).

Turning to `CO[C@]12C[C@H](CNC(=O)c3ccc[nH]3)O[C@H]1NC(=O)N2`, the GI50 was > 100 µM (inactive) in the assay on 786-0; > 100 µM (inactive) in the assay with ACHN; > 100 µM (inactive) in the assay on CCRF-CEM; > 100 µM (inactive) in the assay with COLO 205; above 100 µM in the assay on HCT-15; > 100 µM (inactive) in the assay with HL-60. For the same compound, the GI50 is 33.7 µM (inactive) with HT-29; > 100 µM (inactive) with KM12; > 100 µM (inactive) in the assay with NCI-H522; > 100 µM (inactive) in the assay with OVCAR-5; > 100 µM (inactive) in the assay on OVCAR-8; > 100 µM (inactive) in the assay with SF-539. In addition, the GI50 in the assay with SNB-19, in the assay on T47D, with TK-10, with U-251, in the assay with UACC-257 and with UO-31 was > 100 µM (inactive) throughout.

On to `OC(C/C(=N\N1CCCCC1)c1cccs1)(C(F)(F)F)C(F)(F)F`, for which the GI50 is > 10 µM (inactive) with 786-0; > 10 µM (inactive) in the assay on ACHN; > 10 µM (inactive) in the assay with CCRF-CEM; > 10 µM (inactive) in the assay on COLO 205; above 10 µM in the assay with HCT-15; > 10 µM (inactive) with HL-60. Besides, the GI50 in the assay with HT-29, in the assay with KM12, in the assay with NCI-H522, in the assay with OVCAR-4, in the assay on OVCAR-8 and in the assay with SF-539 was > 10 µM (inactive) each time. The GI50 in the assay on SK-MEL-28, in the assay with SNB-19, in the assay with T47D, in the assay with TK-10, with U-251 and in the assay with UACC-257 was > 10 µM (inactive) each time. For the same compound, the GI50 with UO-31 was > 10 µM (inactive).

`O=C1C(Cl)=C(N2CCN(CCOCCO)CC2)C(=O)c2ncccc21`: the GI50 in the assay with 786-0 is > 10 µM (inactive); with ACHN it was > 10 µM (inactive); in the assay on CCRF-CEM it was 0.001 µM (active); in the assay with COLO 205 it was > 10 µM (inactive); in the assay with HCT-15, above 10 µM; with HL-60, 3.35 µM (inactive). Besides, the GI50 is > 10 µM (inactive) in the assay on HT-29; > 10 µM (inactive) with KM12; 2.56 µM (inactive) in the assay with NCI-H522; > 10 µM (inactive) in the assay on OVCAR-4; > 10 µM (inactive) with OVCAR-5; > 10 µM (inactive) with OVCAR-8. The GI50 with SF-539 was > 10 µM (inactive); in the assay with SK-MEL-28, > 10 µM (inactive); in the assay on SNB-19, > 10 µM (inactive); in the assay on T47D it was 2.23 µM (inactive); with TK-10, > 10 µM (inactive); in the assay with U-251, > 10 µM (inactive). The GI50 in the assay on UACC-257 is > 10 µM (inactive).

Turning to `CC1C/C(=C\c2ccc(OC(=O)C(C)(C)C)cc2)C(=O)/C(=C/c2ccc(OC(=O)C(C)(C)C)cc2)C1` (stereo unspecified), the GI50 was 54.3 µM (inactive) in the assay on 786-0; 69.3 µM (inactive) with ACHN; 2.34 µM (inactive) in the assay with CCRF-CEM; > 100 µM (inactive) with COLO 205; above 100 µM with HCT-15; 23.5 µM (inactive) in the assay with HL-60. Moreover, the GI50 in the assay with HT-29 is > 100 µM (inactive); in the assay with KM12 it was 26.2 µM (inactive); in the assay on NCI-H522, 4.29 µM (inactive); with OVCAR-4, 31.4 µM (inactive); in the assay with OVCAR-5, > 100 µM (inactive); in the assay on OVCAR-8, 36 µM (inactive). Besides, the GI50 in the assay with SF-539 was 39.5 µM (inactive); in the assay with SK-MEL-28 it was > 100 µM (inactive); in the assay on SNB-19, > 100 µM (inactive); with T47D, 59.3 µM (inactive); in the assay on TK-10, > 100 µM (inactive); in the assay on U-251, 31 µM (inactive). Besides, in the assay on UACC-257, the GI50 is > 100 µM (inactive).

Turning to `CCOC(=O)/C(C(=O)c1ccc([N+](=O)[O-])cc1)=C(\NS(=O)(=O)c1cc(C)c(Cl)cc1[S-])[n+]1ccc(N(C)C)cc1`, the GI50 in the assay with 786-0 is 30.3 µM (inactive); in the assay with ACHN, 30.1 µM (inactive); in the assay on CCRF-CEM it was 31.4 µM (inactive); with COLO 205, 29.9 µM (inactive); with HCT-15, 34 µM; in the assay on HL-60, 30.1 µM (inactive). The GI50 in the assay with HT-29 is 24 µM (inactive); in the assay with KM12, 27.4 µM (inactive); with NCI-H522, 12.4 µM (inactive); with OVCAR-4, 32.9 µM (inactive); in the assay with OVCAR-5 it was 28.8 µM (inactive); in the assay on OVCAR-8, 38.9 µM (inactive). Moreover, the GI50 with SF-539 was 21.5 µM (inactive); with SK-MEL-28 it was 28.3 µM (inactive); in the assay on T47D, 50.8 µM (inactive); in the assay on TK-10, 18.7 µM (inactive); in the assay with U-251 it was 41.6 µM (inactive); with UACC-257, 6.47 µM (inactive). The GI50 in the assay with UO-31 is 35.3 µM (inactive).
